# Experimental data from US7745465B2, “Method of enhancing cellular production of molecular chaperone, hydroxylamine derivatives useful for enhancing the chaperone production and the preparation thereof” (CytRx Corporation, priority 1995, dated 2010).
# Assays:
# [1] = test system: human skin grafted on severe combined immunodeficiency disease (SCID) mice; assay: UVB light induced skin injury in human skin grafted SCID mice; assay type: in vivo, mouse; conditions: 5.0 mg/kg i.p. for 7 days
# Procedure: Human skin tissues were grafted onto immunodeficiency (SCID) mice. The experimental protocol involved a treatment of one group of the mice with N-[2-hydroxy-3-(1-piperidinyl)propoxy]-3-piridinecarboxymidoyl chloride maleate (5.0 mg/kg i.p.) and the other with the solvent NaCl solution (300 μl) for 7 days. On day 8, both groups of mice were exposed to UVB light (100 mJ/cm^2) 24 hours subsequent to the exposure, skin biopsies were taken for histological (sections stained with hematoxylin and eosin), and immunohistological examinations (indirect immunoflourescence technique with monoclonal antibody, mAB).
# (i) Human skin transplanted SCID mice treated by N-[2-hydroxy-3-(1-piperidinyl)propoxy]-3-piridinecarboximidoyl chloride maleate (5.0 mg/kg i.p.) or vehicle were exposed to UVB light (100 mJ/cm^2). After 24 h skin biopsies were taken for histological examination and for hsp72 determination using immunohistological and Western blotting techniques.
# [2] = test system: HSPs; assay: Western blot overview of all HSPs in heat shocked H9c2 heart cells; assay type: cell-based, rat; conditions: added 16 hours before the heat treatment
# Procedure: Experiments set forth in this section were conducted to determine whether N-[2-hydroxy-3-(1-piperidinyl)propoxy]-3-pyridinecarboximidoyl chloride maleate acts to increase the expression of molecular chaperon by a cell. The accumulation of different heat shock proteins subsequent to a period of exposure to heat shock alone, and to heat shock in combination with N-[2-hydroxy-3-(1-piperidinyl)propoxy]-3-pyridinecarboximidoyl chloride maleate administration, was examined by adding 10^−5 M of N-[2-hydroxy-3-(1-piperidinyl)propoxy]-3-pyridinecarboximidoyl chloride maleate before, during, or immediately after hyperthermic treatment of heart myogenic cells (H9c2 cells).
# The embryonic rat heart-derived cell line H9c2 was obtained from European Collection of Animal cell Cultures (ECACC) (88092904). The cells were maintained at 37° C. in Dulbecco's modified Eagle's medium (DMEM) supplemented with 10% fetal calf serum (GIBCO) in JOUAN C02 thermostat (5% CO2).
# Heat shock was performed at 43° C. in CO2 thermostat for the given time intervals (20, 40, 60, 90 and 120 min.). Cells were then taken back to 37° C. for 6 hours and proteins were extracted for SDS-PAGE. […]
# Protein concentration was determined from 5:1 samples by the Bradford assay (M. M. Braford, Anal. Biochem., 72: 248-254 (1976)) in three parallel. […]
# [3] = test system: plasma membrane fluidity; assay: Steady-state fluorescence anisotropy of DPH-PA in serum deprived cells; assay type: cell-based; conditions: both cell models
# Procedure: Experiments were carried out using WEH1 mouse fibrosarcoma and H9c2 rat heart muscle cell lines divided into three groups: • control (10% FCS fetal calf serum) • serum deprived • N-[2-hydroxy-3-(1-piperidinyl)propoxy]-3-pyridinecarboximidoyl chloride maleate (10^−5 M) treated and serum deprived 1.2(i) Serum Deprivation and MTT Test
# Cell suspensions of […] in PBS were labeled by the addition of DPH-PA (3-[p-(6-Phenyl)-1,3,5-hexatrienyl]phenylpropionic acid) dissolved in tetrahydrofuran at a final concentration of 0.1 :M and incubated for 10 min. at 37 C. The amount of organic solvent added was 0.05% to avoid its effect on cell membranes. […] Fluorescence measurements were carried out at 37° C. using a Quanta Master QM-1 T-format luminescence spectrometer (Photon Technology Int. Inc., N.J. USA) equipped with polarizers in the excitation and in the two emission light path. […] The measured fluorescence intensities were corrected for background fluorescence and light scattering from the unlabeled sample. The fluorescence anisotropy was calculated as rs=(IVV−G·IVH)/(IVV+(2×G×IVH))
# where IVV and IVH are observed intensities measured with polarizers parallel and perpendicular to the vertically polarized exciting beam, respectively. […]
compound,measurement,setting,value
O=C(O)/C=C\C(=O)O.OC(CON=C(Cl)c1cccnc1)CN1CCCCC1 (stereo not shown) [N-[2-hydroxy-3-(1-piperidinyl)-propoxy]3-pyridinecarboximidoyl chloride maleate],clinical signs of injuries due to UV exposure,"[1]; UVB 100 mJ/cm^2, listed as N-[2-hydroxy-3-(1-piperidinyl)propoxy]-3-piridinecarboximidoyl chloride maleate",prevented UVB light induced skin injury
same,clinical signs of injuries due to UV exposure,"[1]; UVB 100 mJ/cm^2, listed as N-[2-hydroxy-3-(1-piperidinyl)propoxy]-3-piridinecarboxymidoyl chloride maleate",clinical signs of injuries due to UV exposure could not be observed
same,level of all HSPs increased further as compared to that observed upon heat stress,[2],at least twofold
same,membrane physical state (fluorescence anisotropy of DPH-PA),[3],almost complete preservation of the membrane physical state
